Source: patent US20130261131A1, “PHARMACEUTICAL COMPOSITIONS AND MENTODS FOR TREATMENT OF FUNGAL INFECTIONS” (priority 2012, published 2013)
Values after ≈ are worked out from the molar mass of the structure shown. Values joined by “and” are separate entries in the source; they are usually repeats but may differ in a detail not shown here. Equal entries are not always repeated.

Key:
[1] = test system: Ergosterol Biosynthesis, Aspergillus fumigatus_ND 158; test: inhibition of ergosterol biosynthesis; assay type: cell-based, Aspergillus fumigatus; settings: Aspergillus fumigatus_ND 158, RPMI-1640, 30° C., 48 h
Description: (§1) Compounds of the invention were tested for their ability to inhibit ergosterol biosynthesis. Testing was performed in 96-well round-bottom microtitration plates (Table 2). Cell suspensions were prepared in RPMI-1640 medium and were adjusted to give a final inoculum concentration of 0.5×10^3 to 2.5×10^3 cells/ml. The plates were incubated incubated at 30° C. for 48 h before growth was assessed. The MIC of each compounds was defined as the lowest concentration at which there was 80% inhibition of growth compared with that in a drug-free control [O. N. Breivik and J. L. Owades, Agric. Food Chem., 5 (1957) 360-363; T. F. Patterson, S. G. Revankar, W. R. Kirkpatrick, O. Dib, A. W. Fothergill, S. W. Redding, D. A. Sutton and M. G. Rinaldi, J. Clin. Microbiol., 34 (1996) 1794-1797]. Ergosterol content was calculated as a percentage of the wet weight of the cell [National Committee for Clinical Laboratory Standards. 1997. Reference method for broth dilution antifungal susceptibility testing of yeasts, Approved standard. Document M27-A, National Committee for Clinical Laboratory Standards, Wayne, Pa.].

Aspergillus Flavus = test: agar dilution in vitro activity test; assay type: cell-based; settings: 9 organisms, Kimmig's agar, 25° C.; for MIC: read-out: GMMICS (geometric mean minimum inhibitory concentration)
Description: (§2) Organisms listed in Table 1 were tested according to an agar dilution method: Suspensions of each microorganism were prepared to contain […] colony forming units (cfu)/mL. All drugs were dissolved in a few drops of DMSO then diluted with ethanol—water (1/1, v/v) to make a stock solution of 500 μg/mL. The agar dilution method was performed in a medium of Kimmig's agar (K. A., Merck) −0.5% glycerol [R. A. Fromtling, G. K. Abruzzo and A. Ruiz, Mycopathologia, 106 (1989) 163-166]. Plates of Kimmig's agar containing serial dilutions (25 to 0.01 μg/mL) of the drugs were inoculated with 10 μL of the fungal inocula and incubated at 25° C. […] for yeasts and up to 5 days for filamentous fungi. Following incubation, GMMICs (geometric mean minimum inhibitory concentration μg/mL) were determined. In the table POCZ indicates posaconazole, ITRZ indicates itraconazole, EQUZ indicates Equaconazole, and FLUZ indicates fluconazole [Patterson, T. F., S. G. Revankar, W. R. Kirkpatrick, O. Dib, A. W. Fothergill, S. W. Redding, D. A. Sutton, and M. G. Rinaldi, J. Clin. Microbiol. 34 (1996) 1794-1797].

Cryptococcus neoformans = test: agar dilution in vitro activity test; assay type: cell-based; settings: 10 organisms, Kimmig's agar, 25° C.; for MIC: read-out: GMMICS (geometric mean minimum inhibitory concentration)
Description: as §2

Trichophyton rubrum = test: agar dilution in vitro activity test; assay type: cell-based; settings: 17 organisms, Kimmig's agar, 25° C.; for MIC: read-out: GMMICS (geometric mean minimum inhibitory concentration)
Description: as §2

Microsporum canis = test: agar dilution in vitro activity test; assay type: cell-based; settings: 6 organisms, Kimmig's agar, 25° C.; for MIC: read-out: GMMICS (geometric mean minimum inhibitory concentration)
Description: as §2

Candida Krusei = test: agar dilution in vitro activity test; assay type: cell-based; settings: 22 organisms, Kimmig's agar, 25° C.; for MIC: Pichia kudriavzevii, read-out: GMMICS (geometric mean minimum inhibitory concentration)
Description: as §2

[2] = test system: Ergosterol Biosynthesis, Candida albicans_C286; test: inhibition of ergosterol biosynthesis; assay type: cell-based, Candida albicans; settings: Candida albicans_C286, RPMI-1640, 30° C., 48 h
Description: as §1

[3] = PK study of antifungal nasal spray, plasma level after intranasal dosing; assay type: in vivo, Gottingen mini-pigs
Description: Experiments were performed to determine blood levels of Posaconazole formulation after intranasal dosing in Gottingen mini-pigs. A Group of three male and three female mini-pigs (ages from 6 to 9 months) were used for the studies. The vehicle used in the experiments was 5% of PEG-12 GDM in saline solution. The intranasal administration was performed with 35 mL of Luer slip syringes. HPLC-MS analyses were performed on heparinized mini-pig plasma samples obtained typically at 0 hr, 0.08 hr, 1 hr, 2 hr, 4 hr, 12 hr and 24 hr after dosing. The drug was first isolated from plasma with a sample pre-treatment. Acetonitrile were used to remove proteins in samples. An isocratic HPLC-MS method was then used to separate the drug from any potential interference. Drug levels were measured by MS detection with a multiple reaction monitoring (MRM) mode.

In the case of Equaconazole [EQUZ], the IC50 [1] is reported as 9.8 nM, the “GMMICS (geometric mean minimum inhibitory concentration)” value (Aspergillus Flavus) is reported as 0.09 µg/mL and the “GMMICS (geometric mean minimum inhibitory concentration)” value (Cryptococcus neoformans) is reported as 0.25 µg/mL. The “GMMICS (geometric mean minimum inhibitory concentration)” value (Trichophyton rubrum) was 0.10 µg/mL, the “GMMICS (geometric mean minimum inhibitory concentration)” value (Microsporum canis) was 0.35 µg/mL and the “GMMICS (geometric mean minimum inhibitory concentration)” value (Candida Krusei) was 0.15 µg/mL. It also gave an IC50 [2] of 31.1 nM.
Compound `CCC(C)n1ncn(-c2ccc(N3CCN(c4ccc(OCC5COC(Cn6cncn6)(c6ccc(Cl)cc6Cl)O5)cc4)CC3)cc2)c1=O` (stereo not drawn) [ITRZ, itraconazole] has an MIC (Aspergillus Flavus) of 0.35 µg/mL (≈ 0.496 µM), an MIC (Cryptococcus neoformans) of 0.49 µg/mL (≈ 0.694 µM) and an MIC (Trichophyton rubrum) of 3.1 µg/mL (≈ 4.39 µM). The MIC (Microsporum canis) was 1.2 µg/mL (≈ 1.7 µM), the MIC (Candida Krusei) was 0.6 µg/mL (≈ 0.85 µM) and the IC50 [2] was 39.1 nM.
In the case of `CC[C@@H]([C@H](C)O)n1ncn(-c2ccc(N3CCN(c4ccc(OC[C@@H]5CO[C@@](Cn6cncn6)(c6ccc(F)cc6F)C5)cc4)CC3)cc2)c1=O` [POCZ, posaconazole], the “Posaconazole Level in Mini-pig Plasma” value ([3]; 0.08 hour after intranasal dosing, 5% PEG-12 GDM in saline, individual animals, female mini-pigs) is reported as 1.23 ng/mL and 1.39 ng/mL and 1.21 ng/mL, the “Posaconazole Level in Mini-pig Plasma” value ([3]; 0.08 hour after intranasal dosing, 5% PEG-12 GDM in saline, individual animals, male mini-pigs) is reported as 1.74 ng/mL and 1.56 ng/mL and the “Posaconazole Level in Mini-pig Plasma” value ([3]; 1 hour after intranasal dosing, 5% PEG-12 GDM in saline, individual animals, female mini-pigs) is reported as 2.06 ng/mL and 1.86 ng/mL and 1.26 ng/mL. For the same compound, the “Posaconazole Level in Mini-pig Plasma” value ([3]; 1 hour after intranasal dosing, 5% PEG-12 GDM in saline, individual animals, male mini-pigs) was 1.24 ng/mL and 1.26 ng/mL, the “Posaconazole Level in Mini-pig Plasma” value ([3]; 4 hour after intranasal dosing, 5% PEG-12 GDM in saline, individual animals, female mini-pigs) was 1.28 ng/mL and 1.17 ng/mL and 1.56 ng/mL and the “Posaconazole Level in Mini-pig Plasma” value ([3]; 4 hour after intranasal dosing, 5% PEG-12 GDM in saline, individual animals, male mini-pigs) was 1.42 ng/mL and 1.46 ng/mL. For the same compound, the “Posaconazole Level in Mini-pig Plasma” value ([3]; 12 hour after intranasal dosing, 5% PEG-12 GDM in saline, individual animals, female mini-pigs) was 2.03 ng/mL and 2.44 ng/mL and 2.35 ng/mL, the “Posaconazole Level in Mini-pig Plasma” value ([3]; 12 hour after intranasal dosing, 5% PEG-12 GDM in saline, individual animals, male mini-pigs) was 2.41 ng/mL and 1.93 ng/mL and the “Posaconazole Level in Mini-pig Plasma” value ([3]; 24 hour after intranasal dosing, 5% PEG-12 GDM in saline, individual animals, female mini-pigs) was 1.17 ng/mL and 2.04 ng/mL and 1.46 ng/mL. For the same compound, the “Posaconazole Level in Mini-pig Plasma” value ([3]; 24 hour after intranasal dosing, 5% PEG-12 GDM in saline, individual animals, male mini-pigs) was 1.86 ng/mL and 1.66 ng/mL, the concentration at 0.08 h ([3]; both sexes, Gottingen, minipig, plasma, other: intranasal, 0.08 hour after intranasal dosing, 5% PEG-12 GDM in saline, individual animals, read-out: Posaconazole Level in Mini-pig Plasma) was 1.35 ng/mL and the concentration at 1 h ([3]; both sexes, Gottingen, minipig, plasma, other: intranasal, 1 hour after intranasal dosing, 5% PEG-12 GDM in saline, individual animals, read-out: Posaconazole Level in Mini-pig Plasma) was 1.62 ng/mL. For the same compound, the concentration at 4 h ([3]; both sexes, Gottingen, minipig, plasma, other: intranasal, 4 hour after intranasal dosing, 5% PEG-12 GDM in saline, individual animals, read-out: Posaconazole Level in Mini-pig Plasma) was 1.26 ng/mL, the concentration at 12 h ([3]; both sexes, Gottingen, minipig, plasma, other: intranasal, 12 hour after intranasal dosing, 5% PEG-12 GDM in saline, individual animals, read-out: Posaconazole Level in Mini-pig Plasma) was 1.96 ng/mL and the concentration at 24 h ([3]; both sexes, Gottingen, minipig, plasma, other: intranasal, 24 hour after intranasal dosing, 5% PEG-12 GDM in saline, individual animals, read-out: Posaconazole Level in Mini-pig Plasma) was 1.86 ng/mL. For the same compound, the “amount detected in mini-pig plasma after dosing (in words)” value ([3]; intranasal dosing with formulated Posaconazole) was “Only trace amounts”, the MIC (Aspergillus Flavus) was 0.12 µg/mL (≈ 0.171 µM) and the MIC (Cryptococcus neoformans) was 0.24 µg/mL (≈ 0.342 µM). For the same compound, the MIC (Trichophyton rubrum) was 1.2 µg/mL (≈ 1.71 µM), the MIC (Microsporum canis) was 0.5 µg/mL (≈ 0.713 µM) and the MIC (Candida Krusei) was 0.21 µg/mL (≈ 0.3 µM).
Compound `OC(Cn1cncn1)(Cn1cncn1)c1ccc(F)cc1F` [FLUZ, fluconazole] has an MIC (Aspergillus Flavus) of over 235 µg/mL, an MIC (Cryptococcus neoformans) of 45 µg/mL (≈ 147 µM) and an MIC (Trichophyton rubrum) of 105 µg/mL (≈ 343 µM). The MIC (Microsporum canis) was 151 µg/mL (≈ 493 µM) and the MIC (Candida Krusei) was 65 µg/mL (≈ 212 µM).
